{"source": "patent US6878751B1", "about": "“Administration of resveratrol to treat inflammatory respiratory disorders” (Imperial College of Science Technology and Medicine, priority 2000, dated 2005)", "key": {"iNOS": {"system": "iNOS", "assay": "iNOS activity by nitrite and nitrite/nitrate accumulation in cytomix-stimulated human primary epithelial cells", "format": "cell-based", "conditions": "for EC50: Homo sapiens, Epithelial cell, 24 h", "procedure": "The inducible form of the enzyme NO synthase, iNOS(NOS2), which is known to be expressed during inflammation, is thought to be responsible for increased NO levels of asthmatic patients. Agents known to induce iNOS in human primary epithelial cells, such as interleukin-1β, tumor necrosis factor-α, and interferon-γ (cytomix) are useful in assaying resveratrol for inhibition of iNOS expression and activity, and comparing its effect to steroids.\nHuman primary epithelial cells are cultured from normal donor tissue. Explant cultures of tissue obtained from normal human lung transplant donors provided human primary epithelial (HPE) cells. The HPE cells were cultured in Ham's F12 nutrient medium containing 5% (v/v) fetal calf serum (FCS), 1 μM hydrocortisone, 5 ng/ml EGF (epithelial growth factor), 10 μg/ml insulin, 10 nM retinoic acid, 0.5 μg/ml transferrin, 2 μg/ml triiodothyronine, 1.5 μg/ml NaHCO3, 100 μg/ml penicillin, 100 μg/ml streptomycin and 0.25 μg/m amphotericin B; the cells were incubated at 37° C. in a humidified atmosphere containing 95% (v/v) air, 5% (v/v) CO2. The HPE cells were cultured for the last 24 hours prior to the experimental treatments under the same conditions except that additive free Ham's F12 media was substituted for the supplemented Ham's F12 media described above.\nThese cells were stimulated for 24 hours with 50 ng/ml cytomix (interferon-γ) in the absence or presence of resveratrol, or one of glucocorticoids, dexamethasone and budenoside. Activity of iNOS is measured by determination of […] and nitrite/nitrate accumulation. Nitrite was measured by a modification of the method of Misko, et al. (1993) Anal. Biochem. 214:11-16. […] The reaction was stopped by addition of 10 μl of 1.4M NaOH, and fluorescense was measured with a Biolite F1 fluorimeter (Labtech, Uckfield, U.K.) set at: 460 nm emission wavelength, 360 nm excitation wavelength, 40-50% sensitivity. Sample nitrite concentration was calculated by reference to a standard curve of known nitrite concentrations, permitting assay sensitivity to 0.1 μM."}, "[1]": {"system": "NF-κB dependent transcription", "assay": "NF-κB luciferase reporter in stably transfected A549 cells", "format": "cell-based, human", "procedure": "The expression of inflammatory genes was then evaluated in cells transformed with luciferase reporter genes containing sites for transcription factors (Tf, Tfs). The A549 cells were stably transfected by routine methods with luciferase reporters containing the transcription factors NF-κB, TRE (AP-1, TPA responsive element) and CRE (cAMP responsive element). Luciferase activity of cell lysates resuspended in […] cell lysis buffer mixed (40 mml resuspended lysate: 40 mml assay reagent) was measured using the Luciferase Assay System (Promega), with emitted light measured by a Turner DesignsTD-20/20 luminometer (Steptech Instruments Ltd., Stevenage, U.K.)"}, "COPD patients": {"system": "COPD patients", "assay": "Oral resveratrol clinical evaluation in COPD (Example 8)", "format": "in vivo, human", "conditions": "oral, 200, 2000 or 3000 mg/day, about six months", "procedure": "Resveratrol is evaluated clinically for efficacy in treating COPD. The study is generally patterned after the asthma studies with modifications appropriate to the clinical and histopathologic evaluation of COPD disease, and the references listed in the preceding examples may be applied as appropriate. Smokers are treated once or more per day with gelatin capsules containing resveratrol. The different populations of COPD patients are subdivided into subpopulations: emphysema patients, bronchitis patients and other COPD. Patients are divided randomly and blindly into four approximately equal groups that receive either 0 (placebo), 200, 2000, or 3000 mg/day resveratrol for about six months in oral doses of 0, 50, 500, or 750 mg administered 4 times daily for about six months.\nPatients are medically monitored for clinical symptoms of COPD throughout the study, including frequency and severity of hypoxemic and respiratiry acidotic exacerbations. In addition, induced sputum samples are obtained from the patients at days 0, 30, 90, and 180 and neutrophil counts are performed and the samples are assayed for IL-8 and myeloperoxidase by routine methods. Forced expiratory volume (FEV) and forced inspiratory volume (FIV) are also evaluated to measure airway patency as a direct measure of clinical morbidity and to determine correlation the histopathologic and other indicators of clinical disease. […]"}, "[2]": {"system": "Smokers with no disease or mild COPD", "assay": "Oral resveratrol for chemoprevention of COPD in smokers (Example 10)", "format": "in vivo, human", "conditions": "2 to 5 years", "procedure": "Resveratrol is evaluated clinically for efficacy in chemoprevention of COPD in smokers. The study is generally patterned after the asthma studies with modifications appropriate to the clinical and histopathologic evaluation of COPD disease, and the references listed in the preceding examples may be applied as appropriate. Smokers with no disease or mild COPD are treated once or more per day with gelatin capsules containing resveratrol. The population of smokers are subdivided into subpopulations: clinically and histopathologically disease free, clinically asymptomatic with histopathologic inflammation and mildly COPD symptomatic, meaning some chronic bronchitis but no pulmonary impairment causing hypoxemia or acidosis. Each subpopulation is divided randomly and blindly into four approximately equal groups that receive either 0 (placebo), 200, 2000, or 3000 mg/day resveratrol […] in oral doses of 0, 50, 500, or 750 mg administered 4 times daily for 2 to 5 years. […]\nPatients are medically monitored for clinical symptoms of COPD throughout the study, including onset of symptoms and frequency and severity thereof. […] Forced expiratory volume (FEV) and forced inspiratory volume (FIV) are also evaluated to measure airway patency as a direct measure of clinical morbidity and to determine correlation the histopathologic and other indicators of clinical disease. […]"}}, "note": "Where two headings read alike, the source gives them in different places.", "data": [{"molecule": "Oc1ccc(/C=C/c2cc(O)cc(O)c2)cc1", "note": "[Resveratrol, 3,5,4′-trihydroxystilbene]", "values": [{"measurement": "inhibition of nitrite formation / accumulation in the cell culture media", "setting": "iNOS; HPE cells, cytomix 24 hours, steroids at 10^−9 M to 10^−5 M", "value": "only agent able to inhibit nitrite formation"}, {"measurement": "EC50", "setting": "iNOS; read-out: EC50 for nitrite accumulation", "value": "3.6 ± 2.9", "unit": "µM"}, {"measurement": "EC50", "setting": "iNOS; read-out: EC50 for nitrite/nitrate accumulation", "value": "0.88 ± 0.47", "unit": "µM"}, {"measurement": "extent of inhibition of NF-κB dependent transcription", "setting": "[1]", "value": "completely"}, {"measurement": "EC50", "setting": "[1]; Homo sapiens, read-out: EC50 for inhibition of NF-κB dependent transcription", "value": "21 ± 7", "unit": "µM"}, {"measurement": "efficacy in treating COPD", "setting": "COPD patients", "value": "effective for treating COPD"}, {"measurement": "side effects", "setting": "[2]; oral, relative to those expected from steroid administration", "value": "without significant side effects"}, {"measurement": "efficacy in chemoprevention of COPD in smokers", "setting": "[2]; oral, 200, 2000 or 3000 mg/day", "value": "effective for chemoprevention of COPD in smokers"}]}]}
